Test results as given in publication PMC8915595, “Revisiting the application of Immobilized Artificial Membrane (IAM) chromatography to estimate in vivo distribution properties of drug discovery compounds based on the model of marketed drugs” (ADMET & DMPK, 2020).
Where two headings read alike, the source gives them in different places.

Experiments:
[1] = IAM chromatography on new IAM.PC.DD2 columns (gradient HPLC, CHI (IAM)); format: physicochemical; design: key to CHI (IAM) “new” / P20511-014-3 CHI (IAM): CHI (IAM) from retention times calibrated to predefined CHI standards; settings: for P20511-014-3 CHI (IAM): new IAM.PC.DD2 column batch P20511-014-3, pH 7.4; for R20511-014-3 CHI (IAM): new IAM.PC.DD2 column batch R20511-014-3, pH 7.4; for CHI (IAM) deviation between reference and new IAM.PC.DD2 columns / CHI (IAM) “new”: system suitability test compounds; for CHI (IAM) “new”: new IAM.PC.DD2 columns, pH 7.4; for outlier in correlation of reference CHI (IAM) with CHI (IAM) on column R20511-014-3: lower CHI (IAM) on new batches, outlier if difference greater than 7.2 CHI IAM units
Experimental: The IAM binding was measured using IAM.PC.DD2 HPLC columns (Regis Technologies, Inc., IL, USA) with dimensions of 100 x 4.6 mm, particle size 10 μm with 300 Å pore size.
Two batches of IAM.PC.DD2 columns were studied (R20511-014-3 and P20511-014-3) that had been prepared using the new batches of silica support.
The retention times were standardized using the IAM calibration mixture, containing octanophenone, heptanophenone, hexanophenone, valerophenone, butyrophenone, propiophenone, acetophenone, acetanilide and paracetamol. The retention times of the compounds were plotted against the isocratically determined and predefined CHI (IAM) values listed in Table 1. The slope and intercept of the obtained straight line was used to calculate the CHI IAM values of new compounds.

[2] = biological target: T1, human serum albumin (HSA) (Homo sapiens, UniProt P02768); assay: Protein binding on chemically bonded HSA column (Chiralpak-HSA); settings: remeasured in this study, pH 7.4
T1 sequence (P02768 25-609): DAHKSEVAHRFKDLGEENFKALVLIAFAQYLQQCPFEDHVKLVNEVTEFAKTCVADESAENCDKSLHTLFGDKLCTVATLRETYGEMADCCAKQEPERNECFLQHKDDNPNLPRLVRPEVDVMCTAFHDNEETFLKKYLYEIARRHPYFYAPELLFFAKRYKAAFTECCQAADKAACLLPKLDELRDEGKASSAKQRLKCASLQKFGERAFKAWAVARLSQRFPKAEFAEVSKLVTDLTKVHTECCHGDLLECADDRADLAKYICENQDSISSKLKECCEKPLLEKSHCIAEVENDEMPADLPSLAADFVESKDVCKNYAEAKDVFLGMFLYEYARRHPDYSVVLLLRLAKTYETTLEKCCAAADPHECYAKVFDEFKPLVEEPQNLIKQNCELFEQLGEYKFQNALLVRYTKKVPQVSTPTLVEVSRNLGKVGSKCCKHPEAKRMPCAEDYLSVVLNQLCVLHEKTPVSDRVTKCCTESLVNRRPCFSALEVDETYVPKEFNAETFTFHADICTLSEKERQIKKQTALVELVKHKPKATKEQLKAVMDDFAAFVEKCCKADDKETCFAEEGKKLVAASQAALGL
Experimental: Mobile phase A was 50 mM ammonium acetate adjusted to pH 7.4 and mobile phase B was 2-propanol. The flow rate was 1.5 mL/min and the run time was 6 min. The 2-propanol gradient was applied from 0 to 35% from 0 to 3.00 min and kept at 35% until 4.00 min.

[3] = cited from earlier work; for CHI (IAM) from ref [13]: reference CHI (IAM), old columns
[4] = biological target: T1, human serum albumin (HSA); settings: cited from earlier work
[5] = human

P20511-014-3 CHI (IAM) [1]	R20511-014-3 CHI (IAM) [1]	log K HSA [2]	outlier in correlation of reference CHI (IAM) with CHI (IAM) on column R20511-014-3 [1]	SMILES	CHI (IAM) from ref [13] [3]	CHI (IAM) deviation between reference and new IAM.PC.DD2 columns [1]	CHI (IAM) “new” [1]	CHI (IAM) ([3]; system suitability test compounds, CHI (IAM) reference from the literature)	log K HSA from ref [13] [4]	reference log Vdss [5]	CHI (IAM) ([3]; previously published, IAM column manufactured 2004-2012)
18.03	18.53	0.42		CCCCNCC(O)c1ccc(O)cc1 (stereo not shown) [Bamethan]							
27.20	27.31			C[C@]12C=CC(=O)C=C1CC[C@@H]1[C@@H]2[C@@H](O)C[C@@]2(C)[C@H]1CC[C@]2(O)C(=O)CO [Prednisolone]	28.00						
				CCCC1O[C@@H]2C[C@H]3[C@@H]4CCC5=CC(=O)C=C[C@]5(C)[C@H]4[C@@H](O)C[C@]3(C)[C@]2(C(=O)CO)O1 (stereo partly shown) [Budesonide]		very similar	38	38.7			
26.89	26.19	2.66		O=C1C(CC[S+]([O-])c2ccccc2)C(=O)N(c2ccccc2)N1c1ccccc1 (stereo not shown) [Sulfinpyrazone]	26.10				3.17		
30.05	30.18			C[C@H]1C[C@H]2[C@@H]3CCC4=CC(=O)C=C[C@]4(C)[C@@]3(F)[C@@H](O)C[C@]2(C)[C@@]1(O)C(=O)CO [Betamethasone]	31.70						
23.89	22.93			CC(C(=O)O)c1cccc(C(=O)c2ccccc2)c1 (stereo not shown) [Ketoprofen]	21.90	very similar	20.0				21.9
7.37	6.48	3.68		Cc1noc(NS(=O)(=O)c2ccc(N)cc2)c1C [Sulfisoxazole]	2.90						
37.48	38.29			CC(CCc1ccccc1)NCC(O)c1ccc(O)c(C(N)=O)c1 (stereo not shown) [Labetalol]	43.90						
27.02	27.23	2.59		C[C@]12CCC(=O)C=C1CC[C@@H]1[C@@H]2[C@@H](O)C[C@@]2(C)[C@H]1CC[C@]2(O)C(=O)CO [Hydrocortisone]	27.90						
		4.82		CC/C(=C(\c1ccccc1)c1ccc(OCCN(C)C)cc1)c1ccccc1 [Tamoxifen]					1.29		
44.45	44.37			CCOC(=O)C1=C(C)NC(C)=C(C(=O)OC)C1c1cccc(Cl)c1Cl (stereo not shown) [Felodipine]	46.10						
18.27	18.27			CCOC(=O)c1ncn2c1CN(C)C(=O)c1cc(F)ccc1-2 [Flumazenil]	18.40						
11.89	11.73	1.67	outliers	CCN(CC)CCNC(=O)c1ccc(N)cc1 [Procainamide]					0.73		
20.52	20.99	0.95		COc1cc(Cc2cnc(N)nc2N)cc(OC)c1OC [Trimethoprim]	20.80				4.45		
		3.21		CCCc1cc(=O)[nH]c(=S)[nH]1 [Propylthiouracil]					2.67		
33.86	34.09	3.06		O=c1n(CCCN2CCN(c3cccc(Cl)c3)CC2)nc2ccccn12 [Trazodone]	36.30				0.8		
48.97	49.57	2.02		OCCN1CCN(CCCN2c3ccccc3Sc3ccc(Cl)cc32)CC1 [Perphenazine]	56.30				1.6		
				O=C(CCCN1CCC(O)(c2ccc(Cl)cc2)CC1)c1ccc(F)cc1 [Haloperidol]		very similar	48				
39.26	39.50			CC(=O)N1CCN(c2ccc(OCC3COC(Cn4ccnc4)(c4ccc(Cl)cc4Cl)O3)cc2)CC1 (stereo not shown) [Ketoconazole]	42.90						
44.74	45.41	2.70		Clc1ccc2c(c1)C(N1CCNCC1)=Nc1ccccc1O2 [Amoxapine]	56.50				2.15		
29.35	29.82			COc1cc2nc(N3CCN(C(=O)c4ccco4)CC3)nc(N)c2cc1OC [Prazosin]	31.60						
			outliers	CN(C)CCc1c[nH]c2ccc(C[C@H]3COC(=O)N3)cc12 [zolmitriptan]							

SMILES	P20511-014-3 CHI (IAM) [1]	R20511-014-3 CHI (IAM) [1]	log K HSA [2]	outlier in correlation of reference CHI (IAM) with CHI (IAM) on column R20511-014-3 [1]	CHI (IAM) from ref [13] [3]	CHI (IAM) deviation between reference and new IAM.PC.DD2 columns [1]	CHI (IAM) “new” [1]	CHI (IAM) ([3]; system suitability test compounds, CHI (IAM) reference from the literature)	log K HSA from ref [13] [4]	reference log Vdss [5]	CHI (IAM) ([3]; previously published, IAM column manufactured 2004-2012)
CN(C)CCCN1c2ccccc2Sc2ccc(Cl)cc21 [Chlorpromazine]	50.94	51.54	1.27			> 5 CHI (IAM) unit	54.0		1.18	2.15	
NC(=O)OCC(COC(N)=O)c1ccccc1 [Felbamate]	39.21	39.16	4.15		19.07				3.46		
CCn1nc(C(=O)O)c(=O)c2cc3c(cc21)OCO3 [Cinoxacin]	6.67	5.31	0.91						0.79	-0.42	
CCN1CCCC1CNC(=O)c1cc(S(N)(=O)=O)ccc1OC (stereo not shown) [Sulpiride]	16.15	15.80		outliers	25.50				4.84	0.12	
CCN(CC)CCNC(=O)c1ccc(NC(C)=O)cc1 [Acecainide]	17.57	17.72	0.52		23.30				0.69		
CC(C)NCC(O)COc1cccc2ccccc12 (stereo not shown) [Propranolol]	41.46	42.24	1.02		50.80		42.0				
COc1ccc2cc(CCC(C)=O)ccc2c1 [Nabumetone]	35.96	35.90	2.14		38.40				0.49		
COc1ccc2c(c1)c(CC(=O)O)c(C)n2C(=O)c1ccc(Cl)cc1 [Indomethacin]	33.16	32.49			25.30	very similar	30.0			-0.96	
O=C(O)Cc1ccccc1Nc1c(Cl)cccc1Cl [Diclofenac]	35.85	35.18			33.50					-0.67	
Cn1c(=O)c2c(ncn2CC(O)CO)n(C)c1=O (stereo not shown) [Diprophylline]	-1.98	-1.49	4.24		-4.00				4.1		
CC(=O)CC(c1ccccc1)c1c(O)c2ccccc2oc1=O (stereo not shown) [Warfarin]	24.18	23.47				very similar	24.0			-0.78	
COc1ccc(Cc2nccc3cc(OC)c(OC)cc23)cc1OC [Papaverine]	31.15	31.22	0.39		34.40						
COc1cc2c(c(OC)c1OC)-c1ccc(OC)c(=O)cc1[C@@H](NC(C)=O)CC2 [Colchicine]	23.18	23.45			23.70		23.0				
Cn1cnc2c1c(=O)[nH]c(=O)n2C [Theobromine]	-3.71	-3.16							4.68	-0.25	
CN(C)CCCN1c2ccccc2CCc2ccccc21 [Imipramine]	44.81	45.58	5.59		51.60	> 5 CHI (IAM) unit	45.0				
